Where two headings read alike, the source gives them in different places.
Experiments:
[1] = assay type: physicochemical; details: 50° C., nitrogen atmosphere; for content ratio, 2 hours elapsed / content ratio, 4 hours elapsed / content ratio, 6 hours elapsed / content ratio, 10 hours elapsed: GC with internal standard; for content ratio, 0 hour: content immediately after temperature rise defined as 100%
Experimental: 50 mL of each of SAL and acrolein was charged in three-necked flask, and the contents were subjected to temperature rise to 50° C. in a nitrogen atmosphere. On the occasion when the content of each of SAL and acrolein immediately after the temperature rise was defined as 100%, a change of the content ratio was observed according to the calibration curve method by means of gas chromatography with an internal standard.
Analysis instrument: GC-14A (available from Shimadzu Corporation) Detector: FID (hydrogen flame ionization detector)
Column used: DB-1701 (length: 50 m, film thickness: 1 pn, inner diameter: 0.32 mm) (available from Agilent Technologies)
Analysis conditions: Injection temperature: 250° C., detection temperature: 250° C.
Temperature rise conditions: 70° C.→(temperature rise at 5° C./min)→250° C.
Internal standard substance: Diglyme (diethylene glycol dimethyl ether)

Rat = details: cited from earlier work
[2] = Removal test of iron sulfide; details: for time elapsed until iron sulfide was dissolved and the reaction solution became colorless transparent: 1.5 mmol aldehyde, 0.5 mmol iron sulfide in 500 mL water, 50° C., 500 rpm
[3] = assay type: physicochemical; details: pH 1.7
Experimental: Each of SAL and acrolein was dissolved in 0.5 mol/L of phosphoric acid buffer solutions having a pH different from each other, thereby preparing 0.1 wt % solutions. 50 mL of each of the solutions was charged in a sample vial in a nitrogen atmosphere and stored at 23±2° C. On the occasion when the content of each of SAL and acrolein at the time of preparation was defined as 100%, a change of the content ratio was observed according to the absolute calibration curve by means of high-performance liquid chromatography analysis.
pH 1.7: 4.9 g of 75% phosphoric acid and 7.8 g of sodium dihydrogen phosphate dihydrate were dissolved in 200 mL of distilled water.
pH 6.2: 7.8 g of sodium dihydrogen phosphate dihydrate and 7.1 g of disodium hydrogen phosphate were dissolved in 200 mL of distilled water.
pH 8.1: 0.3 g of sodium dihydrogen phosphate dihydrate and 13.9 g of disodium hydrogen phosphate were dissolved in 200 mL of distilled water.
Analysis instrument: Prominence System (available from Shimadzu Corporation)
Column used: Cadenza CD-C18 (length: […], inner diameter: 4.6 mm)
Developing solution: H2O/MeOH=45/55 (volume ratio), H3PO4=1 mol/L

[4] = upper respiratory tract; cited from earlier work

SMILES	content ratio, 2 hours elapsed [1] [%]	content ratio, 4 hours elapsed [1] [%]	content ratio, 6 hours elapsed [1] [%]	content ratio, 10 hours elapsed [1] [%]	content ratio, 0 hour [1] [%]	ratio lost after elapsing 10 hours ([1]; acrolein contained hydroquinone as a stabilizer) [%]	Acute toxicity, Rat LD50 (Rat; Rat)	time elapsed until iron sulfide was dissolved and the reaction solution became colorless transparent [2] [h]	pH stability as compared with acrolein [3]	Acute toxicity, Rat LD50 (Rat; rat, in vivo)	GHS Classification (under Permissible Exposure Limit) [4]	iron sulfide removal ability ([2]; compared with acrolein)
C=CC=O [Acrolein, acrolein, reference compound]	99.5	98.3	98.1	96.6	100.0	3.4	Rat LD50: 42 mg/kg	4				
CC(C)=CCCC(C)=CC=O [Citral, 3,7-dimethyl-2,6-octadienal]								7				
CC(C)=CC=O [SAL, 3-methyl-2-butenal]	100.0	100.0	100.0	99.9	100.0			4	extremely high in the pH stability as compared with acrolein	Rat LD50: 690 mg/kg	GHS Classification; Section 1 (upper	equivalent to acrolein

Source: patent US20190241822A1, “COMPOSITION FOR REMOVING IRON SULFIDE” (KURARAY CO., LTD., priority 2016, published 2019)
